Ends that are not written are not given here.
Tests used:
sheep = experiment: Serum IgG ELISA after vaccination of sheep; format: in vivo; conditions: for Dilution of serum three times background IgG response directed against BI100-cg2 antigen: 500 μg peptide in PBS; for Immune response in vaccinated sheep (in words): by itself or with two different standard adjuvants
Description: 100 μl of antigen as indicated (pre-incubated in Coating buffer—0.05M Na2CO3 pH9.6; denoted CB—in cold at 8 μg/ml 1-3 days) or just CB (background control) was used for coating wells in microtiter plates at 4° C. The microtiter plates are then washed 3× with washing buffer (PBS+1% v/v Triton-X100; denoted WB), followed by 2 h blocking at room temperature (RT) with 200 μl/well of blocking buffer (PBS+1% w/v BSA). Plates are then washed 3× with WB, followed by 1 h incubation at 37° C. with 50-70 ul/well of added human (or rabbit or sheep) sera (serial dilutions ranging from 1:5-1:250 in dilution buffer (PBS+1% v/v Triton-X100+1% w/v BSA; denoted DB)). Plates are then washed 6× with WB, followed by 1 h incubation at RT with 70 μl/well of Alkaline Phosphatase-conjugated Protein G (3 μg/ml in DB; Calbiochem 539305) or goat anti-mouse IgG biotin (1 μg/ml, Southern Biotech, 1030-08. In case of the goat anti-mouse IgG biotin, the plates were washed one extra step as described, before addition of 100 μl Streptavidin-Alkaline-Phosphatase (1 μg/ml, Sigma Aldrich, S289) and incubated 1 hour at RT. Plates are then washed 6× with WB, followed by 10-60 min incubation at room temperature with 100 μl/well of 0.3% w/v of Phenophtalein monophosphate (Sigma P-5758). Plates are finally quenched by adding 100 μl/well of Quench solution (0.1M TRIS+0.1M EDTA+0.5M NaOH+0.01% w/v NaN3; pH14), followed by a measurement with a ELISA reader (ASYS UVM 340) at 550 nm. The strength of the sera, i.e. the magnitude of the humoral immune response, is then reported as the dilution of sera that result in the described Optical Density (OD) value, or the OD value at the indicated dilution of sera.
The vaccination of sheep was done with 500 μg of peptide in PBS with the following adjuvants: ISA51 (vaccination week 1, 2, 3, 4, serum from week 6) and Freunds Adjuvant (vaccination weeks 1, 12, 26, serum from week 28). […] This indicate that the constructs can be combined with different adjuvants and induce an IgG response, a signal that an immunological memory has been elicited in sheep.

human PBMC = experiment: Influenza specific M2e response by ELISPOT assay (B cell response in stimulated PBMC); format: cell-based
BALB/c mice = experiment: Serum IgG ELISA after vaccination of BALB/c mice; format: in vivo
Description: 100 μl of antigen as indicated (pre-incubated in Coating buffer—0.05M Na2CO3 pH9.6; denoted CB—in cold at 8 μg/ml 1-3 days) or just CB (background control) was used for coating wells in microtiter plates at 4° C. The microtiter plates are then washed 3× with washing buffer (PBS+1% v/v Triton-X100; denoted WB), followed by 2 h blocking at room temperature (RT) with 200 μl/well of blocking buffer (PBS+1% w/v BSA). Plates are then washed 3× with WB, followed by 1 h incubation at 37° C. with 50-70 ul/well of added human (or rabbit or sheep) sera (serial dilutions ranging from 1:5-1:250 in dilution buffer (PBS+1% v/v Triton-X100+1% w/v BSA; denoted DB)). […] Plates are finally quenched by adding 100 μl/well of Quench solution (0.1M TRIS+0.1M EDTA+0.5M NaOH+0.01% w/v NaN3; pH14), followed by a measurement with a ELISA reader (ASYS UVM 340) at 550 nm. […]

[1] = tested on: New Zealand White female rabbits; experiment: Rabbit immunizations with BI400-B vaccine, direct ELISA of sera; format: in vivo
Description: New Zealand White female rabbits (n=3) was immunized intradermally at weeks 0, 2 & 6 with 1 ml of BI400-B vaccine consisting of 500 μg BI400-B in 50% V/V Freund's adjuvant (i.e. Complete Freund's adjuvant used for priming, followed by boostings with Incomplete Freund's adjuvant). Individual blood serum was isolated for ELISA.
50-100 μl of BI400-B (pre-incubated in Coating buffer—0.05M Na2CO3 pH9.6; denoted CB—in cold at 16 μg/ml for each peptide 1-3 days prior to coating) or just CB (background control) is used for coating wells in microtiter plates at 4° C. overnight. The microtiter plates are then washed 3× with washing buffer (PBS+1% v/v Triton-X100; denoted WB), followed by 2 h blocking at room temperature (RT) with 200 μl/well of blocking buffer (PBS+1% w/v BSA). Plates are then washed 3× with WB, followed by 1 h incubation at 37° C. with 50-70 ul/well of added human (or rabbit) sera (serial dilutions ranging from 1:1-1:250 in dilution buffer (PBS+1% v/v Triton-X100+1% w/v BSA; denoted DB)). Plates are then washed 6× with WB, followed by 1 h incubation at RT with 70 μl/well of Alkaline Phosphatase-conjugated Protein G (3 μg/ml in DB; Calbiochem 539305). […] Plates are finally quenched by adding 100 μl/well of Quench solution (0.1M TRIS+0.1M EDTA+0.5M NaOH+0.01% w/v NaN3; pH14), followed by ELISA reader (ASYS UVM 340) at 550 nm.

[2] = Freunds Adjuvant, vaccination weeks 1, 12, 26, serum from week 28
[3] = ISA51, vaccination week 1, 2, 3, 4, serum from week 6

Substance	Dilution of serum three times background IgG response directed against BI100-cg2 antigen (sheep; [2])	Dilution of serum three times background IgG response directed against BI100-cg2 antigen (sheep; [3])	Dilution of serum three times background IgG response directed against BI100-cg2 antigen (sheep; adjuvant None)	Immune response in vaccinated sheep (in words) (sheep)	also measured
[RR][SL(Nle)TDIETP][GCG][IDTPIR][G][TPIBQDWG] [BI100-CG]	11000	125	25	induced an immune response	–
[WWGC][TDIET][CG][IDTPIR][G][TPIBQDWG] [BI100CGcyc]	125	25	25	induced an immune response	–
[R][SLZTDIETP][Dpr(Aoa)][IDTPIR][G][TPIBQDWG] | [RR][IDTPIR][GG][TPI(Har)QEW][Dpr(Ser)][SLZTDIETPG] [BI150-2mod]	–	–	–	–	IgG specific B cell response in human PBMC (in words) (human PBMC; IgG): recognised by human memory cells; IgM B cell proliferation in human PBMC (in words) (human PBMC; IgM): able to induce proliferation of IgM B cells
RRGNWAKVLKNWAKVI (SEQ ID NO: 130) | RRGLLADARVGCGSGADRVCS (SEQ ID NO: 131) (linker (positions not given here) via sulpho‑SMCC; also: sulpho-SMCC linker between Lys and Cys, places not given here) [BI350-1mod1, lysine of first peptide linked to cysteine of second peptide by a sulpho-SMCC linker]	–	–	–	–	Immune response in vaccinated mice (in words) (BALB/c mice; IgG specific): induced a specific immune response; Serum IgG response (OD) directed against vaccine antigen, Mean (n = 6) (BALB/c mice; s.c. 100 μg peptide + Alhydrogel at weeks 1, 3, 7, serum from week 9): 0.26 OD
GAKRRVVGGCGGAKRRVVQREKRAGEREKRA (SEQ ID NO: 121) | GKGGIEEEGGRDRDRGGEQDRDR (SEQ ID NO: 122) (thioether (positions not given here); not fully specified (bridges)) [BI400-B, peptides linked via Cys and Lys residues (thioether)]	–	–	–	–	Character of antibodies generated in animal models (in words) ([1]; animal models): comparable with antibodies elicited in natural HIV infection; Antibody response after immunization (in words) ([1]; rabbits, intradermal 500 μg in Freund's adjuvant at weeks 0, 2 & 6): elicit an efficient antibody response
